Experimental data published in patent publication US20210145842A1, “NEW THERAPEUTIC USES” (NOVARTIS AG, priority 2018, published 2021).
Several values for one entry are separate records, joined by “and”; a condition that tells them apart may be missing. Equal values may be shown once. Read-outs that look alike come from different tables or passages of the source.

Assays:
[1] = system: patients with metastatic NSCLC containing EGFR ex19del or L858R substitution mutations; details: EURTAC; erlotinib 150 mg once daily; cited from earlier work
patients [2] = details: pooled analysis; cited from earlier work
patients with NSCLC = details: in vivo; cited from earlier work
patients [3] = details: human, in vivo; cited from earlier work
[4] = system: patients with EGFR T790M-mutant NSCLC who were third-generation EGFR TKI naïve
Description: Patients were screened for eligibility across six subgroups according to EGFR mutation status and prior therapy, and treated with nazartinib 75-350 mg (capsule or tablet formulation) orally, once daily (QD), on a continuous 28-day dosing schedule. The primary objective of the Phase I part was to determine the maximum tolerated dose and/or recommended Phase II dose (RP2D).
This was a Phase I/II, multicenter, open-label study of nazartinib in patients with locally advanced/metastatic EGFR-mutant NSCLC.
Nazartinib was administered orally, once daily (QD), on a continuous, 28-day cycle dosing schedule. The starting dose for the Phase I part was 75 mg in capsule formulation. Nazartinib in tablet formulation was also introduced during Phase I. Patients were treated across the following QD dose groups: 75 mg, 100 mg, 150 mg, 200 mg, 225 mg, 300 mg, and 350 mg. Initial cohorts consisted of 1-6 patients.
Patients treated with capsule or with tablet at the same dose level were pooled together into a single treatment group for safety and efficacy analyses. The Full Analysis Set (FAS) consists of all patients who received ≥1 dose of the study drug. Efficacy analyses were performed on all patients in the FAS who had baseline and post-baseline tumor assessment data or who had discontinued prior to post-baseline tumor assessment, and excluded patients with tumors that were wild-type at EGFR T790 or who had received prior third-generation EGFR TKIs, unless otherwise noted.
Duration of response (DoR) and PFS were described using the Kaplan-Meier method.

[5] = Distribution of nazartinib to the brain in a preclinical model; assay type: in vivo
[6] = system: patients with advanced EGFR-mutant NSCLC harbouring activating EGFR L858R and/or ex19del mutations
[7] = system: EGFR mutant (L858R, ex19del and T790M) cancer models; details: cited from earlier work
[8] = system: patients with EGFR T790M+ NSCLC; details: cited from earlier work; for hazard ratio for PFS: 95% CI
[9] = system: patients with EGFR mutant NSCLC; details: cited from earlier work
[10] = Brain metastases absent at baseline, 14 evaluable patients, preliminary data
[11] = Brain metastases present at baseline, 10 evaluable patients, preliminary data

## C#Cc1cccc(Nc2ncnc3cc(OCCOC)c(OCCOC)cc23)c1 [erlotinib]
[1]
  median PFS as assessed by the investigator: 9.7 months
Patients [2]
  ILD occurrence: 1.1%
Patients with NSCLC
  PFS obtained following treatment: 9.7 months

## COc1cc2ncnc(Nc3ccc(F)c(Cl)c3)c2cc1OCCCN1CCOCC1 [gefitinib]
Patients [3]
  patients who stopped therapy due to an adverse drug reaction: Approximately 3%
  patients with a severe adverse drug reaction (grade 3 or 4): Approximately 8%
Patients with NSCLC
  PFS obtained following treatment: 9.5 months

## Cc1cc(C(=O)Nc2nc3cccc(Cl)c3n2[C@@H]2CCCCN(C(=O)/C=C/CN(C)C)C2)ccn1 [nazartinib, (R,E)-N-(7-chloro-1-(1-(4-(dimethylamino)but-2-enoyl)azepan-3-yl)-1H-benzo [d]imidazol-2-yl)-2-methylisonicotinamide]
[4]; 75 mg QD, N = 12
  Among patients who progressed: Both A and B (A: progression in brain, B: outside of brain, at first PD): 1 patients
  Among patients who progressed: Only A, not B (A: progression in brain, B: outside of brain, at first PD): 1 patients
[4]; 100 mg QD, N = 34
  Among patients with baseline brain metastasis who progressed: Both A and B (A: progression in brain, B: outside of brain, at first PD): 2 patients
  Among patients with baseline brain metastasis who progressed: Only A, not B (A: progression in brain, B: outside of brain, at first PD): 1 patients
  Best response of brain non-target lesions: Absent/normalized: 1 patients
[4]; 150 mg QD dose level
  ORR: 46%
[4]; 150 mg QD, N = 68
  Best response of brain non-target lesions: Absent/normalized: 3 patients
[4]; 200 mg QD, N = 8
  Among patients who progressed: Only A, not B (A: progression in brain, B: outside of brain, at first PD): 1 patients
  Among patients who progressed: Only B, not A (A: progression in brain, B: outside of brain, at first PD): 6 patients
[4]; 225 mg QD
  HBV reactivation leading to hepatic failure and death: one
[4]; 225 mg QD, N = 24
  Among patients who progressed: Only B, not A (A: progression in brain, B: outside of brain, at first PD): 16 patients
  Among patients with baseline brain metastasis who progressed: Only A, not B (A: progression in brain, B: outside of brain, at first PD): 1 patients
  Among patients with baseline brain metastasis who progressed: Only B, not A (A: progression in brain, B: outside of brain, at first PD): 6 patients
  Best response of brain non-target lesions: Absent/normalized: 3 patients
[4]; 162 evaluable patients with EGFR T790M-positive tumors naïve to third-generation EGFR TKIs, 95% CI: 43-59
  best overall response rate across doses: 51%
[4]; All patients, N = 162
  Among patients with baseline brain metastasis who progressed: Only A, not B (A: progression in brain, B: outside of brain, at first PD): five
  Best response of brain non-target lesions: Absent/normalized: 16% and 14%
[4]; across doses, EGFR T790M-positive, third-generation EGFR TKI naïve
  median duration of response: 11.0 months
[4]; across doses, 95% CI: 7.3-11.1
  median progression-free survival (PFS): 9.1 months
[4]; human, in vivo
  most common adverse events: rash, diarrhea, and pruritus
[4]; patients with EGFR T790M-positive tumors naïve to third-generation EGFR TKIs
  overall disease control rate (DCR): 89% and 87%
[4]; person, EGFR ex19del/T790M NSCLC, numerous small brain metastases at baseline
  brain metastases at first post-baseline evaluation (single case): no longer radiologically detectable
[4]; person, EGFR ex19del/T790M NSCLC, numerous small brain metastases at baseline, no prior local therapy to the brain
  duration of overall partial response (single case): 11.1 months
[5]
  distribution to the brain: minimal
[6]; 150 mg once daily
  6-month duration of response rate (DoR): 91%
  6-month overall survival rate: 95%
  6-month progression-free survival rate: 83%
  disease control rate: 93%
[6]; 150 mg once daily, 45 patients
  patients who achieved complete response: One
[6]; 150 mg once daily, 45 patients, 95% CI 49%-78%
  ORR per RECIST v1.1 by BICR: 64%
[6]; 150 mg once daily, of 45 patients
  patients who demonstrated a response: Twenty-nine
[6]; [10]
  Best overall response per BIRC: Progressive disease (PD): 0 patients
  Disease control rate (CR + PR + SD + NCRNPD) per BIRC: 14 patients
  Overall response rate per BIRC: 11 patients
[6]; [11]
  Best overall response per BIRC: Complete response (CR): 0 patients
  Best overall response per BIRC: Non-CR/non-PD (NCRNPD): 0 patients
  Disease control rate (CR + PR + SD + NCRNPD) per BIRC: 9 patients
  Overall response rate per BIRC: 5 patients
[6]; of the 27 patients without baseline brain metastasis
  patients who developed a new brain metastasis on study: One
[6]; of the 29 responding patients, cutoff 22 Mar. 2018
  responses ongoing at data cutoff: 27 patients
[6]; person, Cycle 5 Day 1 (study day 113), no prior treatment for brain metastases
  brain post-baseline scan versus baseline by BIRC (single case): complete normalization of brain lesion
[7]; several xenograft models
  anti-tumor efficacy: Dose-dependent anti-tumor efficacy
[7]; xenograft models, efficacious doses
  tolerability, body weight: well tolerated with no body weight loss

## C=CC(=O)Nc1cc(Nc2nccc(-c3cn(C)c4ccccc34)n2)c(OC)cc1N(C)CCN(C)C [osimertinib]
[8]; AURA3
  median duration of response: 9.7 month
[8]; osimertinib arm of AURA3
  median PFS: 10.1 months
[8]; overall population, 0.23-0.41
  hazard ratio for PFS: 0.30
[8]; patients with CNS metastases, 0.21-0.49
  hazard ratio for PFS: 0.32
[9]; FLAURA first-line
  investigator reported median progression-free survival: 18.9 months
  median duration of response: 17.2 months
  objective response rate (ORR): 80%
[9]; any cause
  adverse event: diarrhea: 58%
  adverse event: dry skin: 36%
  adverse event: rash or acne: 58%
[9]; in vivo
  AEs of grade 3 or higher: 34%
[9]; interim analysis
  survival rate at 18 months: 83%
[9]; osimertinib vs standard EGFR-TKIs, 95% CI 0.37 to 0.57, P<0.001
  HR for disease progression or death: 0.46
[9]; osimertinib vs standard EGFR-TKIs, 95% CI, 0.45 to 0.88, P=0.007
  hazard ratio for death: 0.63
[9]; osimertinib vs standard EGFR-TKIs, 95% CI, 0.85 to 1.90, P=0.24
  odds ratio for ORR: 1.27
Patients with NSCLC
  PFS obtained following treatment: 10.2 months
